According to PMC10439952, “JT002, a small molecule inhibitor of the NLRP3 inflammasome for the treatment of autoinflammatory disorders” (Scientific Reports, 2023):

Key:
Type in all cases: cell-based
NLRP3 inflammasome [1] = target: T1, NLRP3 inflammasome (Mus musculus, UniProt Q8R4B8); experiment: Inhibition of IL-1β production in mouse BMDMs stimulated by LPS + nigericin; parameters: host or cells: mouse PBMCs; mouse bone-marrow derived macrophages; mouse whole blood (C57BL/6 in the ex vivo study); conditions: Mouse BMDM, read-out: Geo Av IC50, IL-1β
Description: (§1) Inflammasome activation and whole blood assays were essentially carried out as described earlier. Details can be found in the supplementary information section accompanying this publication. A protocol for blood draws from healthy volunteers and use of the blood in preclinical assays was approved by Western Institutional Review Board, Inc (Puyallup, WA, USA). Informed consent was obtained from each donor prior to the first blood draw.
(§2) Cell viability was determined by addition of an equal volume of CellTiter-Glo® 2.0 reagent (Promega) to the remaining cells/supernatant in each well. Intracellular Caspase-1 activity was measured using the Caspase-Glo® assay (Promega) according to the manufacturer’s instructions. The biochemical capsase-1 assay was conducted at Reaction Biology Corporation (Malvern, USA). Human IL-1β, IL-1α, and TNFα and mouse IL-1β were measured in cell culture supernatants using homogeneous time resolved fluorescence assay kits (HTRF, Cisbio, Codolet, France). Human IL-18 was measured in cell culture supernatants using an ELISA kit (R&D Systems, Minneapolis, MN, USA). Plasma IL-1β concentrations were determined by Quantikine® ELISA (R&D Systems, Minneapolis, MN).
(§3) 4H). MS: m/z 433.1 (M+H+). […]

NLRP3 inflammasome [2] = target: NLRP3 inflammasome (Homo sapiens, UniProt Q96P20); experiment: Inhibition of IL-1β production in human PBMCs stimulated by LPS + nigericin; parameters: host or cells: human PBMCs; fresh heparinised human whole blood from healthy volunteers; conditions: Human PBMC, read-out: Geo Av IC50, IL-1β
Description: as §1, §2, §3

NLRP3 inflammasome [3] = target: T1, NLRP3 inflammasome; experiment: Inhibition of IL-1β production in LPS + ATP stimulated mouse whole blood
Description: as §1
as §2, with “MN). […]” for “MN).”
flagellin, prepared in Opt iMEM and combined with Lipofectamine 2000. […]

T1 sequence (Q8R4B8 whole entry): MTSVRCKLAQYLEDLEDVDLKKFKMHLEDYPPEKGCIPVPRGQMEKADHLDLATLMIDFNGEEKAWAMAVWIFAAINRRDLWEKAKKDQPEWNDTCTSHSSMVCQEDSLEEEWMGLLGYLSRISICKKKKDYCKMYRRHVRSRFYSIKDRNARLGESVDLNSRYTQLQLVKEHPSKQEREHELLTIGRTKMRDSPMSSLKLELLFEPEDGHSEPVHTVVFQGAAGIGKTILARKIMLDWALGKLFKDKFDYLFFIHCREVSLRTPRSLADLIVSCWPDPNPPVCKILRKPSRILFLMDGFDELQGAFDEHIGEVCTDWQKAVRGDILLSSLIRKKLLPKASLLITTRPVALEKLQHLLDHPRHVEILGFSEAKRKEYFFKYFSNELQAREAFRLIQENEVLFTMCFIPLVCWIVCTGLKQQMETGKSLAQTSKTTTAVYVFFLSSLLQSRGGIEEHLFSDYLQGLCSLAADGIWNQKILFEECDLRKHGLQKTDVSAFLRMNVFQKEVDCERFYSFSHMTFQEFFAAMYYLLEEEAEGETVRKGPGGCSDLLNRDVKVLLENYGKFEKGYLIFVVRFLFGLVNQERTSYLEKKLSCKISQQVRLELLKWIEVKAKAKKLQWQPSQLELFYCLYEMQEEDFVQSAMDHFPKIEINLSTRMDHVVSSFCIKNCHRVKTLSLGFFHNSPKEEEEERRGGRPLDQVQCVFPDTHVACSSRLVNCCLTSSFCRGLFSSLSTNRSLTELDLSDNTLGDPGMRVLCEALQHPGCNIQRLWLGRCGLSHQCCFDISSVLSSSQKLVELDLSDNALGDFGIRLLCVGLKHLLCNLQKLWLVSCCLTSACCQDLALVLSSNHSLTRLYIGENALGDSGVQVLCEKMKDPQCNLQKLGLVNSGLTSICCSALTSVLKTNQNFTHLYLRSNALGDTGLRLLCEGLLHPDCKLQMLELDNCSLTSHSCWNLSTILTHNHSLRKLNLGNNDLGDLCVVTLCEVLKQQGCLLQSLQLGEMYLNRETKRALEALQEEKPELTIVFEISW
Sequence of NLRP3 inflammasome (Homo sapiens, UniProt Q96P20) (Q96P20 whole entry): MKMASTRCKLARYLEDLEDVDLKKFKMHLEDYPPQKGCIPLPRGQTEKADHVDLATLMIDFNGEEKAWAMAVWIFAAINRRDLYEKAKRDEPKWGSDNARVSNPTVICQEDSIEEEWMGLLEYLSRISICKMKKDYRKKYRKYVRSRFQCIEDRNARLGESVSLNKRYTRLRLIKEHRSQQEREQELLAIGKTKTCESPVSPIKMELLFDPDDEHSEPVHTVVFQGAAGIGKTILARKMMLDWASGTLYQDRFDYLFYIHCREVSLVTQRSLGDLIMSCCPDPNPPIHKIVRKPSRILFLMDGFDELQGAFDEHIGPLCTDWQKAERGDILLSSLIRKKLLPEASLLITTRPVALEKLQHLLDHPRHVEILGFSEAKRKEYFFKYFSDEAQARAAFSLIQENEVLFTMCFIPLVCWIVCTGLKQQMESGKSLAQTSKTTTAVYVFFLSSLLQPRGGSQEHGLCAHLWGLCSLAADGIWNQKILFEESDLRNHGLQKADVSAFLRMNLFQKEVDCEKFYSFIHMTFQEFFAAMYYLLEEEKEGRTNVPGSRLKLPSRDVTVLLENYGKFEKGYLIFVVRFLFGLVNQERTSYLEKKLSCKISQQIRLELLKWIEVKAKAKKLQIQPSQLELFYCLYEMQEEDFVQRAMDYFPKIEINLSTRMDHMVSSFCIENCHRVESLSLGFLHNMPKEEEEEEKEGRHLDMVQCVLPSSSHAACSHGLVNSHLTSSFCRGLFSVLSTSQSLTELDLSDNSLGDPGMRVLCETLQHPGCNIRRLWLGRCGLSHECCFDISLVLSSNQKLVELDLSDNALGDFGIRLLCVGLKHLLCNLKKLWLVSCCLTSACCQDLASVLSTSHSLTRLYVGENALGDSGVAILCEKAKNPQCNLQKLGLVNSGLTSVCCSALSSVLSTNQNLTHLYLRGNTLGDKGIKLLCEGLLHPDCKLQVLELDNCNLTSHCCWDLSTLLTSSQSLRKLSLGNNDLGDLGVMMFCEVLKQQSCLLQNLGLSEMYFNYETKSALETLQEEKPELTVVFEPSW

IC50 (NLRP3 inflammasome [1]): 23 nM | IC50 (NLRP3 inflammasome [2]): 6 nM | IC90 (NLRP3 inflammasome [3]; IL-1β, read-out: in vitro mouse whole blood IC90): 716 nM | IC50 (NLRP3 inflammasome [3]; read-out: Geo Av IC50, IL-1β): 94 nM
SMILES: CO[C@@H]1COc2c(S(=O)(=O)NC(=O)Nc3c4c(cc5c3CCC5)CCC4)cnn2C1 [JT002]
